Reference: PubChem BioAssay (NCI)
Where “and” joins values, the source holds several entries; their conditions need not be identical. Equal entries are not always repeated.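 Assay format: 96-well plates, 48-hour exposure. GI50 is the concentration that inhibits growth by half. TGI marks complete inhibition of growth.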

How the values were obtained:
Assay in all cases: inhibition of tumour cell growth, NCI panel, 48 h
SN12C renal = system: SN12C renal
SK-MEL-5 melanoma = system: SK-MEL-5 melanoma
OVCAR-3 ovarian = system: OVCAR-3 ovarian
U251 CNS = system: U251 CNS
A498 renal = system: A498 renal
HT29 colon = system: HT29 colon
NCI-H460 lung = system: NCI-H460 lung
NCI-H226 lung = system: NCI-H226 lung
OVCAR-4 ovarian = system: OVCAR-4 ovarian
UACC-62 melanoma = system: UACC-62 melanoma

C[C@@H](N)COc1ccc(-c2cnc3ccc(N[C@H](C)c4cccc(F)c4)nn23)cc1
GI50 (SN12C renal): 2.02 µM
TGI (SN12C renal): 10.4 µM
GI50 (SK-MEL-5 melanoma): 1630 nM
TGI (SK-MEL-5 melanoma): 3.03 µM
GI50 (OVCAR-3 ovarian): 2120 nM
TGI (OVCAR-3 ovarian): 4.66 µM
GI50 (U251 CNS): 1.59 µM
TGI (U251 CNS): 4.18 µM
GI50 (A498 renal): 1.52 µM
TGI (A498 renal): 5.58 µM
GI50 (HT29 colon): 1400 nM
TGI (HT29 colon): 3.82 µM
GI50 (NCI-H460 lung): 1.75 µM
TGI (NCI-H460 lung): 3.88 µM
GI50 (NCI-H226 lung): 1.62 µM
TGI (NCI-H226 lung): 7.31 µM
GI50 (OVCAR-4 ovarian): 2.49 µM
TGI (OVCAR-4 ovarian): 11.9 µM
GI50 (UACC-62 melanoma): 1.97 µM
TGI (UACC-62 melanoma): 4.74 µM

C/C(CCC(=O)O)=N/Nc1ccc([N+](=O)[O-])cc1
GI50 (SN12C renal): > 100 µM
TGI (SN12C renal): > 100 µM
GI50 (SK-MEL-5 melanoma): 10100 nM
TGI (SK-MEL-5 melanoma): > 100 µM
GI50 (OVCAR-3 ovarian): 17400 nM
TGI (OVCAR-3 ovarian): > 100 µM
GI50 (U251 CNS): > 100 µM
TGI (U251 CNS): > 100 µM
GI50 (A498 renal): > 100 µM
TGI (A498 renal): > 100 µM
GI50 (HT29 colon): > 100000 nM
TGI (HT29 colon): > 100 µM
GI50 (NCI-H460 lung): 3.12 µM
TGI (NCI-H460 lung): > 100 µM
GI50 (NCI-H226 lung): > 100 µM
TGI (NCI-H226 lung): > 100 µM
GI50 (OVCAR-4 ovarian): > 100 µM
TGI (OVCAR-4 ovarian): > 100 µM
GI50 (UACC-62 melanoma): 0.492 µM
TGI (UACC-62 melanoma): 62.3 µM

CC(c1cc(Cl)ccc1O)c1cc(Cl)ccc1O
GI50 (SN12C renal): 3.66 µM
TGI (SN12C renal): 16.1 µM
GI50 (SK-MEL-5 melanoma): 3410 nM
TGI (SK-MEL-5 melanoma): 10 µM
GI50 (OVCAR-3 ovarian): 3620 nM
TGI (OVCAR-3 ovarian): 13 µM
GI50 (U251 CNS): 3.93 µM
TGI (U251 CNS): 14.5 µM
GI50 (A498 renal): 8.4 µM
TGI (A498 renal): 20.8 µM
GI50 (HT29 colon): 2740 nM
TGI (HT29 colon): 9.13 µM
GI50 (NCI-H460 lung): 2.26 µM
TGI (NCI-H460 lung): 4.88 µM
GI50 (NCI-H226 lung): 12 µM
TGI (NCI-H226 lung): 43.5 µM
GI50 (OVCAR-4 ovarian): 5.24 µM
TGI (OVCAR-4 ovarian): 22.8 µM
GI50 (UACC-62 melanoma): 3.58 µM
TGI (UACC-62 melanoma): 15 µM

CC1(C)CC(=O)C=C(/C=C/Sc2c(Cl)c(Cl)nc(Cl)c2Cl)C1
GI50 (SN12C renal): 4.56 µM
TGI (SN12C renal): 16.3 µM
GI50 (SK-MEL-5 melanoma): 11800 nM
TGI (SK-MEL-5 melanoma): 24.4 µM
GI50 (OVCAR-3 ovarian): 2600 nM
TGI (OVCAR-3 ovarian): 8.29 µM
GI50 (U251 CNS): 14.8 µM
TGI (U251 CNS): 28.5 µM
GI50 (A498 renal): 21.7 µM
TGI (A498 renal): 36.6 µM
GI50 (HT29 colon): 16500 nM
TGI (HT29 colon): 47.1 µM
GI50 (NCI-H460 lung): 11.8 µM
TGI (NCI-H460 lung): 32.1 µM
GI50 (NCI-H226 lung): 12.7 µM
TGI (NCI-H226 lung): 29 µM
GI50 (OVCAR-4 ovarian): 20.3 µM
TGI (OVCAR-4 ovarian): 57.9 µM
GI50 (UACC-62 melanoma): 8.48 µM
TGI (UACC-62 melanoma): 20.8 µM

C[C@H](c1ccc(F)cc1CCCC(=O)O)N(c1cc(F)ccc1F)S(=O)(=O)c1ccc(Cl)cc1
GI50 (SN12C renal): 32.2 µM
TGI (SN12C renal): > 100 µM
GI50 (SK-MEL-5 melanoma): 17500 nM
TGI (SK-MEL-5 melanoma): 38 µM
GI50 (OVCAR-3 ovarian): 19600 nM
TGI (OVCAR-3 ovarian): 44 µM
GI50 (U251 CNS): 31.9 µM
TGI (U251 CNS): > 100 µM
GI50 (A498 renal): 13.1 µM
TGI (A498 renal): 57.6 µM
GI50 (HT29 colon): 35300 nM
TGI (HT29 colon): > 100 µM
GI50 (NCI-H460 lung): 20.6 µM
TGI (NCI-H460 lung): 52.8 µM
GI50 (NCI-H226 lung): 31 µM
TGI (NCI-H226 lung): > 100 µM
GI50 (OVCAR-4 ovarian): 26.8 µM
TGI (OVCAR-4 ovarian): > 89.9 µM
GI50 (UACC-62 melanoma): 14.2 µM
TGI (UACC-62 melanoma): 39.2 µM

CN1CC=C(c2cc(NC(=O)Nc3ccc(Oc4ccnc(NC(=O)C5CC5)c4)c(F)c3)cc(C(F)(F)F)c2)CC1
GI50 (SN12C renal): 0.159 µM
TGI (SN12C renal): 1.27 µM
GI50 (SK-MEL-5 melanoma): 853 nM
TGI (SK-MEL-5 melanoma): 1.59 µM
GI50 (OVCAR-3 ovarian): 234 nM
TGI (OVCAR-3 ovarian): 4.93 µM
GI50 (U251 CNS): 0.208 µM
TGI (U251 CNS): 0.824 µM
GI50 (A498 renal): 2.05 µM
TGI (A498 renal): 3.9 µM
GI50 (HT29 colon): 166 nM
TGI (HT29 colon): 0.678 µM
GI50 (NCI-H460 lung): 0.194 µM
TGI (NCI-H460 lung): 0.66 µM
GI50 (NCI-H226 lung): 1.35 µM
TGI (NCI-H226 lung): 4.03 µM
GI50 (OVCAR-4 ovarian): 0.26 µM
TGI (OVCAR-4 ovarian): 2.35 µM
GI50 (UACC-62 melanoma): 1.1 µM
TGI (UACC-62 melanoma): 2.25 µM

O=C(CCC(=O)Nc1ccc(Cl)c(Cl)c1)CC(=O)c1ccc2ccccc2c1
TGI (SN12C renal): > 100 µM
TGI (SK-MEL-5 melanoma): > 100 µM
TGI (OVCAR-3 ovarian): > 100 µM
TGI (U251 CNS): > 100 µM
TGI (A498 renal): > 100 µM
TGI (HT29 colon): > 100 µM
TGI (NCI-H460 lung): > 100 µM
TGI (NCI-H226 lung): > 100 µM
TGI (OVCAR-4 ovarian): > 100 µM
TGI (UACC-62 melanoma): > 100 µM

O=C(O)CN(c1ccccc1)S(=O)(=O)c1cccc([N+](=O)[O-])c1
TGI (SN12C renal): > 100 µM
TGI (SK-MEL-5 melanoma): > 100 µM
TGI (OVCAR-3 ovarian): > 100 µM
TGI (U251 CNS): > 100 µM
TGI (A498 renal): > 100 µM
TGI (HT29 colon): > 100 µM
TGI (NCI-H460 lung): > 100 µM
TGI (NCI-H226 lung): > 100 µM
TGI (OVCAR-4 ovarian): > 100 µM
TGI (UACC-62 melanoma): > 100 µM

O=C1Nc2ccccc2/C1=C\c1c(-c2ccccc2)nc2sccn12
GI50 (SN12C renal): 2.75 µM
TGI (SN12C renal): 14.4 µM
GI50 (SK-MEL-5 melanoma): 2200 nM
TGI (SK-MEL-5 melanoma): 7.89 µM
GI50 (OVCAR-3 ovarian): 506 nM
TGI (OVCAR-3 ovarian): 1.93 µM
GI50 (U251 CNS): 2.25 µM
TGI (U251 CNS): 7.96 µM
GI50 (A498 renal): 0.927 µM
TGI (A498 renal): 5.33 µM
GI50 (HT29 colon): 3140 nM
TGI (HT29 colon): 36.9 µM
GI50 (NCI-H460 lung): 3.15 µM
TGI (NCI-H460 lung): 43.9 µM
GI50 (NCI-H226 lung): 4.27 µM
TGI (NCI-H226 lung): 23 µM
GI50 (OVCAR-4 ovarian): 12.6 µM
TGI (OVCAR-4 ovarian): 62.8 µM
GI50 (UACC-62 melanoma): 0.798 µM
TGI (UACC-62 melanoma): 9.72 µM

Cc1cc(Cl)nc2ccc(Cc3ccc4nc(Cl)cc(C)c4c3)cc12
TGI (SN12C renal): > 100 µM
TGI (SK-MEL-5 melanoma): > 100 µM
TGI (OVCAR-3 ovarian): > 100 µM
TGI (U251 CNS): 79.3 µM
TGI (A498 renal): 69.1 µM
TGI (HT29 colon): > 100 µM
TGI (NCI-H460 lung): > 100 µM
TGI (NCI-H226 lung): > 100 µM
TGI (OVCAR-4 ovarian): > 100 µM
TGI (UACC-62 melanoma): > 100 µM

O=C(c1ccccc1)C(Cl)C(Cl)c1ccccc1 (stereo unspecified)
GI50 (SN12C renal): 2.1 µM
TGI (SN12C renal): 5.95 µM
GI50 (SK-MEL-5 melanoma): 2930 nM
TGI (SK-MEL-5 melanoma): 10.7 µM
GI50 (OVCAR-3 ovarian): 2030 nM
TGI (OVCAR-3 ovarian): 4.57 µM
GI50 (U251 CNS): 3.97 µM
TGI (U251 CNS): 14.3 µM
GI50 (A498 renal): 13.6 µM
TGI (A498 renal): 27.1 µM
GI50 (HT29 colon): 2050 nM
TGI (HT29 colon): 4.12 µM
GI50 (NCI-H460 lung): 6.66 µM
TGI (NCI-H460 lung): 22.5 µM
GI50 (NCI-H226 lung): 2.17 µM
TGI (NCI-H226 lung): 5.35 µM
GI50 (OVCAR-4 ovarian): 3.45 µM
TGI (OVCAR-4 ovarian): 14.4 µM
GI50 (UACC-62 melanoma): 1.69 µM
TGI (UACC-62 melanoma): 3.69 µM

Cc1ccc(F)c(NC(=O)Nc2ccc(-c3cccc4[nH]nc(N)c34)cc2)c1
GI50 (SN12C renal): 3.16 µM and 3.54 µM
TGI (SN12C renal): 13 µM and > 10 µM
GI50 (SK-MEL-5 melanoma): 2880 nM
TGI (SK-MEL-5 melanoma): 8.56 µM
GI50 (OVCAR-3 ovarian): 2850 nM and 3150 nM
TGI (OVCAR-3 ovarian): 7.76 µM and > 10 µM
GI50 (U251 CNS): 3.49 µM and 3.16 µM
TGI (U251 CNS): 20.6 µM and > 10 µM
GI50 (A498 renal): 2.24 µM and 2.71 µM
TGI (A498 renal): 7.02 µM and 9.3 µM
GI50 (HT29 colon): 2460 nM and 2860 nM
TGI (HT29 colon): 6.93 µM and > 10 µM
GI50 (NCI-H460 lung): 2.42 µM and 2.76 µM
TGI (NCI-H460 lung): 5.94 µM and 8.32 µM
GI50 (NCI-H226 lung): 5.88 µM and 6.06 µM
TGI (NCI-H226 lung): 20.5 µM and > 10 µM
GI50 (OVCAR-4 ovarian): 3.1 µM and 3.8 µM
TGI (OVCAR-4 ovarian): 17.1 µM and > 10 µM
GI50 (UACC-62 melanoma): 3.27 µM and 4.2 µM
TGI (UACC-62 melanoma): 11.7 µM and > 10 µM

O=C(Cc1ccccc1[N+](=O)[O-])C(CO)c1ccccc1[N+](=O)[O-] (stereo unspecified)
TGI (SN12C renal): > 100 µM
TGI (SK-MEL-5 melanoma): > 100 µM
TGI (OVCAR-3 ovarian): > 100 µM
TGI (U251 CNS): > 100 µM
TGI (A498 renal): > 100 µM
TGI (HT29 colon): > 100 µM
TGI (NCI-H460 lung): > 100 µM
TGI (NCI-H226 lung): > 100 µM
TGI (OVCAR-4 ovarian): > 100 µM
TGI (UACC-62 melanoma): > 100 µM

CC1CCC2C(C)C(=O)OC3OC4(C)CCC1C32OO4 (stereo unspecified)
TGI (SN12C renal): > 100 µM
TGI (SK-MEL-5 melanoma): > 100 µM
TGI (OVCAR-3 ovarian): > 100 µM
GI50 (U251 CNS): > 100 µM
TGI (U251 CNS): > 100 µM
GI50 (A498 renal): > 100 µM
TGI (A498 renal): > 100 µM
GI50 (HT29 colon): > 100000 nM
TGI (HT29 colon): > 100 µM
GI50 (NCI-H460 lung): > 100 µM
TGI (NCI-H460 lung): > 100 µM
GI50 (NCI-H226 lung): > 100 µM
TGI (NCI-H226 lung): > 100 µM
TGI (OVCAR-4 ovarian): > 100 µM
GI50 (UACC-62 melanoma): > 100 µM
TGI (UACC-62 melanoma): > 100 µM
